Holding throughout (assay type): cell-based
Assay [1] relates to B-16 melanoma cells. The assay is described as follows: Visual Evaluation Test for Melanin Production Inhibition in Pigment Cells. The arrangement: key to Visual evaluation of melanin production inhibition (whiteness of cell sediment): −: The same as the solvent control (black); +: Slightly different from the solvent control (dark gray); ++: Apparently different from the solvent control (light gray); +++: Cells were not colored (white). The following applies: for Visual evaluation of melanin production inhibition (whiteness of cell sediment): B-16 melanoma cells, four days. As for the experimental part:
In plastic culture flasks (25 cm^2), B-16 melanoma cells were seeded at 5×10^4 per flask, and cultured in DMEM (Dulbecco's Modified Eagle's Medium) containing 10% serum [Nippon Suisan Kaisha, Ltd, trade name] in the presence of 5% carbon dioxide at a temperature of 37° C. On the next day, each test sample diluted with ethanol was added at concentrations in the medium of 3.13, 6.25, 12.5, 25, and 50 ppm, and the cells were cultured for further four days. After the culturing was finished, the medium was removed, and the cells were rinsed with phosphate buffered solution (hereinafter, referred to as PBS). Then, the cells were detached from each flask by using trypsin-containing PBS, and were harvested from the cell suspension by centrifugation. After the obtained cells were rinsed once with PBS, the whiteness of the sediment was visually observed. Compounds 2A and 2B were used as comparative materials.
Activity: The activity was evaluated by using the following four grades. −: The same as the solvent control (black) +: Slightly different from the solvent control (dark gray) ++: Apparently different from the solvent control (light gray) +++: Cells were not colored (white)

For assay [2], the system named is B-16 melanoma cells. The assay is described as follows: Cell growth ratio in the quantification test (cell count). The following applies: 6.25 ppm, two days, relative to control. As for the experimental part:
(§1) In plastic culture flasks (25 cm^2), B-16 melanoma cells were seeded at 5×10^4 per flask, and cultured in DMEM containing 10% serum in the presence of 5% carbon dioxide at a temperature of 37° C. After culturing for three days, each test sample diluted with ethanol was added at a concentration in the medium of 6.25 ppm, and the cells were culture for further two days. After the culturing was finished, the medium was removed, and the cells were rinsed with phosphate buffered solution (hereinafter referred to as PBS). Then, the cells were detached from each flask by using trypsin-containing PBS, and harvested from the cell suspension by centrifugation. To the obtained cells, 2 ml of DMEM was added, and the cells were dispersed by gentle pipetting. Of the DMEM, 100 μl was diluted with DMEM to achieve 1×10^4 to 5×10^5 cells/ml. Then, the number of the cells was counted with Scepter™ 2.0 automated cell counter (Merck Millipore), and the cell growth ratio was determined. The cell growth ratio was determined by the following formula.
Cell growth ratio (%)=(number of cells of sample/number of cells of control)×100

The test system of assay [3] is B-16 melanoma cells. The assay is described as follows: Quantification Test for Melanin Production Inhibition in Pigment Cells (melanin inhibition ratio). Conditions: 6.25 ppm; for Melanin production inhibition ratio: B-16 melanoma cells, two days; for Melanin production-inhibitory activity compared with arbutin in the quantification test: comparison with arbutin. On the procedure:
as §1
The rest of the cell suspension was again centrifuged, and the medium was removed. After that, an operation in which the cells were rinsed with 1 ml of very cool 5% trichloroacetic acid and centrifuged was repeated three times, and further the cells were rinsed twice by adding 1 ml of ethanol/ethyl ether (3:1 volume ratio) and centrifuged. Finally, the cells were rinsed once with 1 ml of ethyl ether, centrifuged, and air-dried over night. To the dried cells, 2 N NaOH was added, and melanin in the cells was dissolved in a water bath of 60° C. After cooling, the absorbance at 415 nm was measured by using a microplate reader (BIO-RAD MICROPLATE READER Benchmark-). From the measured value, the amount of melanin per 10^6 cells was calculated by conversion using a standard curve obtained by using synthesized melanin (NACALAI TESQUE, INC.), and the melanin inhibition ratio was determined. The melanin inhibition ratio was determined by the following formula:
Melanin inhibition ratio (%)=[(amount of melanin of control−amount of melanin of sample)/(amount of melanin of control)]×100

For the molecule `OC[C@H]1O[C@@H](Oc2ccc(O)cc2)[C@H](O)[C@@H](O)[C@@H]1O` [Arbutin, arbutin, reference compound], the results for the “Visual evaluation of melanin production inhibition (whiteness of cell sediment)” value with B-16 melanoma cells [1] (3.13 ppm in medium), in the assay on B-16 melanoma cells [1] (6.25 ppm in medium) and with B-16 melanoma cells [1] (12.5 ppm in medium) were “+”, “++” and “+++”, respectively. For the same molecule, the Cell growth ratio in the assay with B-16 melanoma cells [2] stood at 94.1%. The “Melanin production inhibition ratio” value with B-16 melanoma cells [3] was 35.5%.
With `C=C(C)[C@@H]1CC[C@@H](C)C[C@H]1O` [Compound 1A, (1R,2S,5R)-5-methyl-2-isopropenylcyclohexanol], the entries for the “Visual evaluation of melanin production inhibition (whiteness of cell sediment)” value in the assay on B-16 melanoma cells [1] (6.25 ppm in medium), in the assay with B-16 melanoma cells [1] (12.5 ppm in medium) and in the assay on B-16 melanoma cells [1] (25 ppm in medium) were “−”, “++” and “+++”, respectively.
Regarding `CC(=O)CC(=O)OC1CC(C)CCC1C(C)C` (stereo not shown) [Compound 1G, 2-isopropyl-5-methylcyclohexyl 3-oxobutyrate], the “Visual evaluation of melanin production inhibition (whiteness of cell sediment)” value in the assay with B-16 melanoma cells [1] (3.13 ppm in medium) is on record as “+”; with B-16 melanoma cells [1] (6.25 ppm in medium) it was “+++”; in the assay on B-16 melanoma cells [1] (12.5 ppm in medium), “+++”. Also, the “Activity compared with arbutin in the visual evaluation test at 6.25 ppm” value in the assay on B-16 melanoma cells [1] (6.25 ppm, comparison with arbutin) is given as “higher activity than arbutin”. The Cell growth ratio in the assay with B-16 melanoma cells [2] is 87.8%. Moreover, in the assay on B-16 melanoma cells [3], the “Melanin production inhibition ratio” value is 41.5%. The “Melanin production-inhibitory activity compared with arbutin in the quantification test” value with B-16 melanoma cells [3] is listed as “higher melanin production-inhibitory activity than arbutin”.
On to `CC(C)[C@H]1CC[C@@H](C)C[C@@H]1O` (relative stereo) [Compound 1J, (1S*,2R*,5R*)-2-isopropyl-5-methylcyclohexanol], for which the “Visual evaluation of melanin production inhibition (whiteness of cell sediment)” value in the assay on B-16 melanoma cells [1] (6.25 ppm in medium) is on record as “+”; in the assay on B-16 melanoma cells [1] (12.5 ppm in medium) it was “+++”.
In the case of `CC1CCC(C(C)C)C(OCCCO)C1` (stereo not shown) [Compound 1C, 3-(2-isopropyl-5-methylcyclohexyloxy)propan-1-ol], the “Visual evaluation of melanin production inhibition (whiteness of cell sediment)” value was “−” in the assay with B-16 melanoma cells [1] (3.13 ppm in medium), “++” in the assay on B-16 melanoma cells [1] (6.25 ppm in medium) and “+++” in the assay with B-16 melanoma cells [1] (12.5 ppm in medium). In the assay on B-16 melanoma cells [1] (comparison with arbutin), the “Activity compared with arbutin in the visual evaluation test” value was “almost the same activity as that of arbutin”. Also, in the assay with B-16 melanoma cells [2], the Cell growth ratio worked out at 103.1%. In the assay with B-16 melanoma cells [3], the “Melanin production inhibition ratio” value worked out at 52.0%. The “Melanin production-inhibitory activity compared with arbutin in the quantification test” value with B-16 melanoma cells [3] was “higher melanin production-inhibitory activity than arbutin”.
With `CNC(=O)C(C)(C(C)C)C(C)C` [Compound 2B, N,2,3-trimethyl-2-isopropylbutanamide, reference compound], the “Visual evaluation of melanin production inhibition (whiteness of cell sediment)” value with B-16 melanoma cells [1] (25 ppm in medium) is “−”; in the assay with B-16 melanoma cells [1] (50 ppm in medium) it was “+”.
In the case of `CC(C)[C@@H]1CC[C@@H](C)C[C@@H]1O` (relative stereo) [Compound 1I, (1S*,2S*,5R*)-2-isopropyl-5-methylcyclohexanol], the “Visual evaluation of melanin production inhibition (whiteness of cell sediment)” value is listed as “+” in the assay with B-16 melanoma cells [1] (6.25 ppm in medium) and “+++” with B-16 melanoma cells [1] (12.5 ppm in medium).
As to `CCNC(=O)C1CC(C)CCC1C(C)C` (stereo not shown) [Compound 2A, N-ethyl-5-methyl-2-isopropylcyclohexane carboxamide, reference compound], the “Visual evaluation of melanin production inhibition (whiteness of cell sediment)” value with B-16 melanoma cells [1] (6.25 ppm in medium) is given as “−”; with B-16 melanoma cells [1] (12.5 ppm in medium), “+”; in the assay with B-16 melanoma cells [1] (25 ppm in medium), “++”; in the assay on B-16 melanoma cells [1] (50 ppm in medium), “+++”.
On to “2-isopropyl-5-methylcyclohexanols [Compound 1H]”, for which the “Visual evaluation of melanin production inhibition (whiteness of cell sediment)” value is “+” with B-16 melanoma cells [1] (3.13 ppm in medium), “++” with B-16 melanoma cells [1] (6.25 ppm in medium) and “+++” in the assay on B-16 melanoma cells [1] (12.5 ppm in medium). In addition, the “Activity compared with arbutin in the visual evaluation test” value in the assay with B-16 melanoma cells [1] (comparison with arbutin) was “almost the same activity as that of arbutin”. In addition, the Cell growth ratio in the assay on B-16 melanoma cells [2] was determined as 102.1%. Moreover, the “Melanin production inhibition ratio” value with B-16 melanoma cells [3] worked out at 49.0%. Further, the “Melanin production-inhibitory activity compared with arbutin in the quantification test” value in the assay on B-16 melanoma cells [3] is “higher melanin production-inhibitory activity than arbutin”.
In the case of `CC(C)[C@H]1CC[C@@H](C)C[C@H]1O` (relative stereo) [Compound 1K, (1R*,2R*,5R*)-2-isopropyl-5-methylcyclohexanol], the “Visual evaluation of melanin production inhibition (whiteness of cell sediment)” value is on record as “+” in the assay on B-16 melanoma cells [1] (6.25 ppm in medium) and “+++” with B-16 melanoma cells [1] (12.5 ppm in medium).
Consider `CC(O)CC(=O)OC1CC(C)CCC1C(C)C` (stereo not shown) [Compound 1D, 2-isopropyl-5-methylcyclohexyl 3-hydroxybutyrate], for which the “Visual evaluation of melanin production inhibition (whiteness of cell sediment)” value in the assay with B-16 melanoma cells [1] (3.13 ppm in medium) was “−”; in the assay with B-16 melanoma cells [1] (6.25 ppm in medium) it was “++”; in the assay on B-16 melanoma cells [1] (12.5 ppm in medium) it was “+++”. In addition, the “Activity compared with arbutin in the visual evaluation test” value in the assay with B-16 melanoma cells [1] (comparison with arbutin) is “almost the same activity as that of arbutin”. For the same molecule, the Cell growth ratio with B-16 melanoma cells [2] is 104.9%. Further, the “Melanin production inhibition ratio” value in the assay with B-16 melanoma cells [3] was 52.8%. In addition, the “Melanin production-inhibitory activity compared with arbutin in the quantification test” value in the assay with B-16 melanoma cells [3] is recorded as “higher melanin production-inhibitory activity than arbutin”.
For `CC1CCC(C(C)C)C(OCC(O)CO)C1` (stereo not shown) [Compound 1B, 3-(2-isopropyl-5-methylcyclohexyloxy)propane-1,2-diol], the “Visual evaluation of melanin production inhibition (whiteness of cell sediment)” value in the assay on B-16 melanoma cells [1] (3.13 ppm in medium) is “+”. The “Visual evaluation of melanin production inhibition (whiteness of cell sediment)” value in the assay with B-16 melanoma cells [1] (6.25 ppm in medium) is “++”. Also, in the assay with B-16 melanoma cells [2], the Cell growth ratio came to 93.2%. In addition, in the assay on B-16 melanoma cells [3], the “Melanin production inhibition ratio” value amounted to 37.0% and the “Melanin production-inhibitory activity compared with arbutin in the quantification test” value is listed as “higher melanin production-inhibitory activity than arbutin”.
For the molecule `CC(O)COC1CC(C)CCC1C(C)C` (stereo not shown) [Compound 1F, 1-(2-isopropyl-5-methylcyclohexyloxy)propan-2-ol], the “Visual evaluation of melanin production inhibition (whiteness of cell sediment)” value in the assay on B-16 melanoma cells [1] (6.25 ppm in medium) is “++”; in the assay with B-16 melanoma cells [1] (12.5 ppm in medium), “+++”. The “Activity compared with arbutin in the visual evaluation test” value in the assay on B-16 melanoma cells [1] (comparison with arbutin) was “almost the same activity as that of arbutin”.
As for `CC1CCC(C(C)C)C(OCCOCCO)C1` (stereo not shown) [Compound 1E, 2-(2-(2-isopropyl-5-methylcyclohexyloxy)ethoxy)ethanol], the figures for the “Visual evaluation of melanin production inhibition (whiteness of cell sediment)” value in the assay on B-16 melanoma cells [1] (3.13 ppm in medium), with B-16 melanoma cells [1] (6.25 ppm in medium) and in the assay on B-16 melanoma cells [1] (12.5 ppm in medium) were “−”, “+” and “++”, respectively. Besides, the Cell growth ratio in the assay on B-16 melanoma cells [2] worked out at 96.4%. Besides, in the assay with B-16 melanoma cells [3], the “Melanin production inhibition ratio” value stood at 23.3%.

Values taken from US20150087856A1, “MELANIN PRODUCTION INHIBITOR” (TAKASAGO INTERNATIONAL CORPORATION, priority 2012, published 2015).
